Results on 17 compounds are retold here after US9966622B2, “Small organic molecule based flow battery” (President and Fellows of Harvard College, priority 2012, dated 2018).

The nature of series [1]: Half-cell cyclic voltammetry of quinones, E^0 (Example 13). It is filed as physicochemical. The note with it: 1 mM in 1 M sulfuric acid, pH 0, glassy carbon, 25 mV/s. As for the experimental part:
1 mM solutions of the quinones listed in the following table were prepared in 1 M sulfuric acid solution. The pH of the solutions was 0. Half-cell electrochemical data were recorded using a working electrode consisting of a flat 3 mm diameter disk of glassy carbon, a coiled platinum wire as a counter electrode, and a Ag/AgCl reference electrode. Cyclic voltammograms were recorded using sweep rates of 25 mV/s.

For series [2] the following is noted: cited from earlier work.
Series [3] can be described thus: Cyclic voltammetry of AQDS on glassy carbon (Example 3). It is filed as physicochemical. The conditions noted are these: 1 mM in 1 M sulfuric acid, glassy carbon disc. From the text:
AQDS was subjected to half-cell electrochemical measurements. […] The peak separation of 34 mV was close to the 59 mV/n, where n was the number of electrons involved, expected for a two-electron process.

The nature of series [4]: Rotating disk electrode measurements of AQDS (Example 4). In kind it is physicochemical. On the procedure: FIG. 5B is a graph of rotating disk electrode measurements using a glassy carbon electrode in 1 M H2SO4 at eleven rotation rates ranging from 200 (red) to 3600 rpm (dk. green).
FIG. 6 is a Levich plot (current vs. rotation rate) of 1 mM AQDS in 1 M H2SO4. Best fit line has a slope of 0.453(2) μA s^1/2 rad^−1/2.
FIG. 7 is a Koutecký-Levich plot (current^−1 vs. rotation rate^−1/2).
FIG. 8 is a Tafel plot (overpotential vs. log(current)) constructed using the current response in the absence of mass-transport at low overpotentials, extrapolated from the zero-intercept of FIG. 7 (infinite rotation rate). Best fit line is the function y=62(x+4.32). This yields α=0.474(2) and k0=7.2(5)×10^−3 cm s^−1.
The glassy carbon disk in Example 3 was rotated at a variety of rates yields mass-transport limited currents from which the AQDS diffusion coefficient (D=3.8(1)×10^−6 cm^2 s^−1)(compare D in [38]) and kinetic reduction rate constant could be determined (FIGS. 5B, 6, 7, and 8). […] This rate constant was faster than that found for many other species used in flow cells such as V^3+/V^2+, Br2/Br^−, and S4^2−/S2^2− (see Table 2 in [40]). The electrochemical reversibility of the two-electron redox reaction was confirmed by the slope of the Tafel plot (FIG. 8), which gave the transfer coefficient α=0.474, which is close to the value of 0.5 expected for an ideally reversible reaction.

Series [5] can be described thus: Pourbaix diagram of AQDS redox couple vs. pH (Example 5). It is filed as physicochemical. On the procedure:
FIG. 5C is a Pourbaix diagram of AQDS. Solid lines indicate slopes of −59 mV/pH, −30 mV/pH, and 0 mV/pH, corresponding to two-, one-, and zero-proton processes respectively. Dashed lines linearly extrapolate the one- and zero-proton processes to give E^0 values of 18 mV (2 e^−/1 H^+) and −296 mV (2 e^−/0 H^+).
To further understand the AQDS redox behavior, we generated a Pourbaix diagram (FIG. 5C) of the equilibrium potential of the AQDS redox couple vs. pH. Aqueous 1 mM solutions of AQDS disodium salt were prepared and pH buffered using the following chemicals: sulfuric acid (1 M, pH 0), HSO4^−/SO4^2− (0.1 M, pH 1-2), AcOH/AcO^− (0.1 M, pH 2.65-5), H2PO4^−/HPO4^2− (0.1 M, pH 5.3-8), HPO4^2−/PO4^3− (0.1 M, pH 9.28-11.52), and KOH (0.1 M, pH 13). The pH of each solution was adjusted with 1 M H2SO4 or 0.1 M KOH solutions. […] In more basic conditions (7<pH<11), a two-electron, one-proton process occurred, giving a 30 mV/pH slope. The potential became pH-independent at values greater than 11, which indicated a two-electron, zero-proton process.

The nature of another series: Aqueous solubility. In kind it is physicochemical. The conditions noted are these: pH 0, aqueous buffer.
Series [6] can be described thus: Stability of AQDS to Br2 / HBr by NMR (Example 12). It is filed as physicochemical. The conditions noted are these: for stability to 2 M / concentrated HBr and Br2: heated to 100° C. for 48 h (two days). As for the experimental part: 50 mg of 9,10-anthraquinone-2,7-disulfonic acid was dissolved in 0.4 mL of D2O was treated with 100 μL of Br2. The ^1H and ^13C NMR spectra (FIGS. 17A-B and 18A-B) were unchanged from the starting material after standing for 20 hours at 25° C. 50 mg of AQDS was then treated with 1 mL of concentrated HBr and 100 μL of Br2. The reaction was heated to 100° C. for 48 h and evaporated to dryness at that temperature. The resulting solid was fully dissolved in D2O giving unchanged and ^1H and ^13C NMR (FIGS. 17C and 18C); however, the ^1H NMR reference was shifted due to residual acid.

Series [7] in a line: Stability of quinone form in aqueous solution, cyclic voltammetry of catechol (Example 1). In kind it is physicochemical. The note with it: 1 N H2SO4. From the text: 1 molal 1,2-ortho-benzohydroquinone (catechol) was oxidized in 1 N H2SO4 at a flat Pt electrode, obtaining the cyclic voltammetry curves shown in FIG. 3A. The sweep starts at (0.2 V, 0 mA/cm^2) and proceeds at 25 mV/s to the right. At about 600 mV vs. Ag/AgCl (the known E^0 is 795 mV vs. SHE), the current density increases as catechol is oxidized to the orthoquinone form. The oxidative current density peaks at about 150 mA/cm^2. The peak and downturn are caused by reactant depletion in a quiescent (non-flowing, non-stirred) electrolyte. In a test at a higher concentration of 3.9 molal (FIG. 3B), we observe asymmetric oxidation and reduction peaks, achieving current densities above 500 mA/cm^2 for the former. The asymmetric shape of the curve in FIG. 3B arises because the quinone form is unstable in aqueous solution. In addition the limited solubility of ortho-benzoquinone (0.06 M) compared to its reduced form precludes symmetric behavior at high concentration.

For series [8] the following is noted: aqueous, no source given; cited from earlier work.
The nature of series [9]: Half-cell cyclic voltammetry compared with AQDS (Examples 6 and 7). In kind it is physicochemical. The conditions noted are these: 1 mM in 1 M H2SO4; listed as 1,8-(OH)2-AQDS.

In brackets after ≈: the same amount, converted by molar mass. Several values for one entry are separate records, joined by “and”; a condition that tells them apart may be missing. Identical values can stand only once. Like-named read-outs stand apart in the source and are kept apart here.

Regarding `O=C1c2cccc(S(=O)(=O)O)c2C(=O)c2c1cccc2S(=O)(=O)O` [Entry 3, 9,10-anthraquinone-1,8-disulfonic acid], the “Standard Reduction Potential E^0 in Volts vs. the standard hydrogen electrode (SHE)” value in series [1] amounted to 0.182 Volts. For the compound `Oc1ccccc1O` [catechol, 1,2-ortho-benzohydroquinone], in series [2] (vs. SHE), the “known E^0” value is reported as 795 mV. Consider `O=C1c2ccccc2C(=O)c2cc(S(=O)(=O)O)ccc21` [Entry 5, 9,10-anthraquinone-2-sulfonic acid], for which, in series [1], the “Standard Reduction Potential E^0 in Volts vs. the standard hydrogen electrode (SHE)” value is 0.171 Volts. As to `O=C1c2ccc(S(=O)(=O)O)cc2C(=O)c2cc(S(=O)(=O)O)ccc21` [Entry 1, 9,10-anthraquinone-2,7-disulfonic acid], the “Standard Reduction Potential E^0 in Volts vs. the standard hydrogen electrode (SHE)” value in series [1] was found to be 0.213 Volts. Besides, the “peak separation (cyclic voltammetry)” value in series [3] is reported as 34 mV. Besides, in series [4] (1 mM in 1 M H2SO4, rotating glassy carbon disk), the “diffusion coefficient D” value is reported as 3.8(1)×10^−6 cm^2 s^−1. The “kinetic reduction rate constant k0” value in series [4] (reduction on glassy carbon, 1 M H2SO4) was 7.2(5)×10^−3 cm s^−1. The “E^0 (2 e^−/1 H^+), extrapolated” value in series [5] (linear extrapolation of one-proton process) is recorded as 18 mV. Also, the “E^0 (2 e^−/0 H^+), extrapolated” value in [5] (linear extrapolation of zero-proton process) was −296 mV. Besides, the solubility – broadly, how much of the substance goes into solution per volume – in “Aqueous solubility” was ~1000 mM (≈ 368 mg/mL). Further, the “stability to 2 M / concentrated HBr and Br2” value in series [6] is recorded as “no reaction”; in series [6] (listed as 9,10-anthraquinone-2,7-disulfonate), “stable”. Also, the “stability to Br2 (1H and 13C NMR spectra)” value in [6] (in D2O, 20 hours at 25° C.) is recorded as “unchanged”.

Consider `O=C1C=C(S(=O)(=O)O)c2ccccc2C1=O` [Entry 11, 1,2-naphthoquinone-4-sulfonic acid], for which the “Standard Reduction Potential E^0 in Volts vs. the standard hydrogen electrode (SHE)” value in series [1] stood at 0.423 Volts. For `O=C1C=CC=CC1=O` [ortho-benzoquinone], the “stability in aqueous solution” value in series [7] is reported as “unstable”. Further, in series [8], the solubility was 60 mM (≈ 6.49 mg/mL).

Turning to `CC1=C(C)C(=O)C(C)=C(C)C1=O` [tetramethylbenzoquinone], the redox potential in [2] (aqueous, literature values [28], [29]) is 0.040 V and 0.068 V. In the case of `O=C1C=C(S(=O)(=O)O)C(=O)c2ccccc21` [Entry 12, 1,4-naphthoquinone-2-sulfonic acid], the “Standard Reduction Potential E^0 in Volts vs. the standard hydrogen electrode (SHE)” value in series [1] was determined as 0.356 Volts. For `O=C1C(Cl)=C(S(=O)(=O)O)C(=O)c2ccccc21` [Entry 13, 2-chloro-1,4-naphthoquinone-3-sulfonic acid], the “Standard Reduction Potential E^0 in Volts vs. the standard hydrogen electrode (SHE)” value in series [1] is reported as 0.368 Volts.

For the compound “2-bromo-1,4-naphthoquinone-3-sulfonic acid [Entry 14]”, the “Standard Reduction Potential E^0 in Volts vs. the standard hydrogen electrode (SHE)” value in [1] turned out to be 0.371 Volts. With `O=C1c2ccccc2C(=O)c2c(O)c(S(=O)(=O)O)c(O)c(O)c21` [Entry 10, 1,3,4-trihydroxy-9,10-anthraquinone-2-sulfonic acid], the “Standard Reduction Potential E^0 in Volts vs. the standard hydrogen electrode (SHE)” value in series [1] is on record as 0.088 Volts. As to `O=C1c2ccccc2C(=O)c2c(O)c(S(=O)(=O)O)cc(O)c21` [Entry 9, 1,4-dihydroxy-9,10-anthraquinone-2-sulfonic acid], the “Standard Reduction Potential E^0 in Volts vs. the standard hydrogen electrode (SHE)” value in series [1] is on record as 0.094 Volts. Regarding `O=C1c2cccc(S(=O)(=O)O)c2C(=O)c2cccc(S(=O)(=O)O)c21` [Entry 4, 9,10-anthraquinone-1,5-disulfonic acid], the “Standard Reduction Potential E^0 in Volts vs. the standard hydrogen electrode (SHE)” value in [1] is reported as 0.223 Volts. `O=C1c2ccc(S(=O)(=O)O)cc2C(=O)c2ccc(S(=O)(=O)O)cc21` [Entry 2, 9,10-anthraquinone-2,6-disulfonic acid]: the “Standard Reduction Potential E^0 in Volts vs. the standard hydrogen electrode (SHE)” value in series [1] amounted to 0.212 Volts.

Turning to `O=C1c2ccc(S(=O)(=O)O)c(O)c2C(=O)c2c1ccc(S(=O)(=O)O)c2O` [Entry 7, 1,8-dihydroxy-9,10-anthraquinone-2,7-disulfonic acid], the “Standard Reduction Potential E^0 in Volts vs. the standard hydrogen electrode (SHE)” value in [1] is reported as 0.118 Volts. For the same compound, the “lowering of reduction potential relative to AQDS” value in series [9] is ~100 mV and 95 mV. For `O=C1c2ccccc2C(=O)c2cc(CS(=O)(=O)O)c(CS(=O)(=O)O)cc21` [Entry 6, 9,10-anthraquinone-2,3-dimethanesulfonic acid], in series [1], the “Standard Reduction Potential E^0 in Volts vs. the standard hydrogen electrode (SHE)” value is reported as 0.114 Volts. Take `O=C1c2ccc(S(=O)(=O)O)c(O)c2C(=O)c2ccc(S(=O)(=O)O)c(O)c21` [Entry 8, 1,5-dihydroxy-9,10-anthraquinone-2,6-disulfonic acid]: the “Standard Reduction Potential E^0 in Volts vs. the standard hydrogen electrode (SHE)” value in series [1] turned out to be 0.116 Volts.
